The record followed here is US20090280110A1, “Cell Model for Alzheimer's Disease Pathology” (UNIVERSITY OF VIRGINIA PATENT FOUNDATION, priority 2006, published 2009).

Assay [1] deals with microtubules in primary hippocampal neurons. The experiment in a line: Triton X-100 extraction partitioning soluble and polymerized tubulin, immunoblotting. The conditions noted are these: 2 hours. In kind it is cell-based, rat. As for the experimental part: Microtubule Extraction/Blotting: Primary hippocampal neurons were treated with 1-3 μM pre-fibrillar or fibrillar Aβ42. Cells were washed with PBS, and extracted with Triton X-100 in a microtubule stabilizing buffer (Black et al., 1996). Briefly, cells were incubated with PHEM buffer (60 mM PIPES pH 6.9, 25 mM HEPES, 10 mM EGTA, 2 mM MgCl2) with 10 μM taxol, and 0.2% Triton X-100 for 5 minutes. The buffer was collected and centrifuged for 5 minutes at maximum speed in an Eppendorf model 5415 table top centrifuge, and the supernatant removed and added to sample buffer. An equivalent volume of PHEM buffer and sample buffer was added to the dish, and this sample was added to the pellet from the spin. Equal volumes of supernatants and pellets, which respectively contained soluble and polymerized tubulin (Black et al., 1996), were then analyzed by immunoblotting with DM1α monoclonal anti-α-tubulin (Sigma) and monoclonal tau-5. DM1α (Blose et al., 1984) and tau-5 (Loomis et al., 1990) recognize all isoforms or α-tubulin and tau, respectively, independently of post-translational modifications. Quantitation of scanned immunoreactive α-tubulin bands was performed using the public domain image processing software, Image J at the NIH website.
A general note: In western blotting, separated proteins are transferred to a membrane and probed.

Another assay has as its system CV-1 cell microtubules. The experiment in a line: Time lapse fluorescence microscopy of microtubules in transfected CV-1 cells treated with Aβ. In kind it is cell-based, African green monkey. The procedure:
(§1) Cell Culture: CV-1 (African green monkey kidney) cells were cultured in DMEM (Dulbecco's modified Eagle's Medium; GIBCO) supplemented with 10% Cosmic Calf Serum (Hyclone) and 50 μg/ml gentamycin. Cells were transiently transfected using Fugene (Roche) with cDNAs for the longest human isoform of tau, or the projection domain (amino acids 1-248) of tau linked at their C-terminals to eCFP or eYFP (Clontech); with YFP-α-tubulin (Clontech); or with GFP-MAP2c or GFP-MAP2c/tau chimeras (Roger et al., 2004), which were generous gifts of Dr. Shelley Halpain. Primary cortical neurons were purchased from Genlantis and cultured according to their guidelines. Primary hippocampal neurons (Wisco et al., 2003) were grown for at least 8 days prior to Aβ treatment. The tau siRNA (Darmacon SMARTpool) and control scrambled siRNA (Darmacon non-specific duplex II) were transfected into primary hippocampal neurons using the rat neuron Nucleofection system (Amaxa) and program G-13 (Qiang et al., 2006). Cells were cultured for 4 days after Nucleofection, and then were exposed to Aβ.
Aβ treatment: Previously described methods were used to synthesize (Burdick et al., 1992) and resuspend (Kayed et al., 2003) Aβ42 and Aβ40. The Aβ was added to cells cultured in serum-free DMEM to final concentrations from 0.1-5 μM. Pre-fibrillar Aβ was used in the first and second days following resuspension, while fibrillar Aβ was used following at least 7 days of stirring.
Microscopy: Confocal live cell imaging and immunofluorescence microscopy were performed on a Zeiss Axiovert 100 using Openlab 4.0 (Improvision) software, as previously described (Mateer et al., 2002). For electron microscopy, primary cortical and hippocampal neurons were grown on glass coverslips, treated with Aβ42, and fixed in 2.5% glutaraldehyde+0.5% tannic acid in 0.1 M cacodylate buffer pH 7.4. Cells on coverslips were dehydrated and capsule embedded in EPON, and the glass coverslip was removed from the EPON by alternating liquid nitrogen and warm water submersion of the capsule. Sectioned samples were viewed on a JEOL JEM 1010 electron microscope at 80 kV and images captured using a SA1-12c 16 megapixel cooled CCD (Scientific Instruments and Applications, Inc).

For a further assay, the system named is tau. Put plainly: Western blotting with phosphorylation-sensitive anti-tau antibodies (PHF-1, AT180, tau-1). In kind it is cell-based. The conditions noted are these: primary rat hippocampal neurons, 1 μM, 2 hours. From the text: Antibodies: Tau-5, Tau-1, and R1 tau were generous gifts of Dr. Lester Binder, and PHF-1 was kindly provided by Dr. Peter Davies. AT180 (Pierce Endogen), DM1α (Sigma Chemical), Actin C4 (Chemicon), fluorescently tagged goat anti-mouse IgG and goat anti-rabbit (Southern Biotech), and HRP-labeled goat anti-mouse IgG (KPL) were acquired from the indicated commercial sources.

The subject of assay [2] is primary rat cortical neurons. The experiment in a line: Immunofluorescence and electron microscopy of neurons treated with Aβ42. The format is cell-based. To be noted: 1 μM. As for the experimental part:
as §1
Microscopy: Confocal live cell imaging and immunofluorescence microscopy were performed on a Zeiss Axiovert 100 using Openlab 4.0 (Improvision) software, as previously described (Mateer et al., 2002). […]

Entries after “also recorded” stand apart in the source; their conditions may differ.

“fibrillar Aβ42: synthesized Aβ42 peptide used following at least 7 days of stirring” had a tubulin polymerized in assay [1] (primary hippocampal neurons, 3 μM, about 90% in cells not exposed) of 65%. In addition, in the assay with CV-1 cell microtubules (CV-1 cells expressing tau-CFP, as much as 5 μM, more than two hours), the “microtubule integrity in tau-expressing cells” value is “unaffected”. Besides, in the assay on CV-1 cell microtubules (tau-expressing CV-1 cells, 3 μM, 0-140 minutes (FIG. 1c)), the “microtubules in tau-expressing cells” value is “unaffected”.
Turning to “pre-fibrillar Aβ42: synthesized Aβ42 peptide used in the first and second days following resuspension; monomers to oligomers”, the AD-like tau phosphorylation entry with tau is on record as “did not cause increased AD-like tau phosphorylation”. Moreover, the “neurite morphology by immunofluorescence” value in assay [2] (30 minutes) was “swollen varicosities”. The “neurite microtubules by electron microscopy” value in assay [2] (2 hours) is “fewer, less organized microtubules; also recorded: numerous varicosities that were filled with membrane-bound organelles and lacked microtubules”. The “change in tubulin levels in response to Aβ42 in tau siRNA-treated cells” value in assay [1] (primary neurons with tau siRNA, 2 μM, compared to tau expressing cells) is recorded as “no change”. Moreover, in the assay with CV-1 cell microtubules (CV-1 cells co-expressing tau-CFP and YFP-tubulin, 0.1-3 μM), the “time after addition until tau dissociated from microtubules” value was 1 to 2 h. Further, the “concentration added to culture media at which tau dissociated from microtubules, which completely disassembled soon thereafter” value in the assay with CV-1 cell microtubules (CV-1 cells co-expressing tau-CFP and YFP-tubulin, within 1-2 hours) was in the range of 0.1 to 3 µM. In addition, the “microtubule integrity in cells without tau” value in the assay with CV-1 cell microtubules (CV-1 cells expressing YFP-tubulin but not tau-CFP, as much as 3 μM, more than two hours) is “remained intact”. Besides, the “effect on tau and microtubules in tau-expressing cells” value in the assay on CV-1 cell microtubules (CV-1 cells with tau-CFP and YFP-tubulin, 1 μM, 0-120 minutes (FIG. 1a)) was “caused tau to dissociate from microtubules, and the microtubules to disassemble soon thereafter”. For the same substance, the “microtubules in cells expressing the N-terminal arm (projection domain) of tau coupled to CFP” value in the assay on CV-1 cell microtubules (CV-1 cells, 1 μM) is given as “depolymerized”. In the assay with CV-1 cell microtubules (CV-1 cells, 1 μM, less than an hour), the “microtubules in cells expressing GFP-tau chimera” value is given as “depolymerized”. The “microtubules in cells expressing GFP-MAP2c chimera” value in the assay with CV-1 cell microtubules (CV-1 cells, 1 μM, more than 2 hours) is “remained intact”. For the same substance, in the assay with CV-1 cell microtubules (CV-1 cells, 1 μM, over 2 hours), the “microtubule integrity in cells expressing GFP-MAP2c” value is reported as “did not cause any apparent loss of microtubule integrity; also recorded: remained intact”.
